Assay results: article PMC7367283, “A PIP2 substitute mediates voltage sensor-pore coupling in KCNQ activation” (Communications Biology, 2020)

Target: pseudo wild-type KCNQ1 (with mutations C214A/G219C/C331A) (Homo sapiens, UniProt P51787, C214A/C331A/G219C)
Assay: Voltage-clamp fluorometry (VCF) of pseudo WT KCNQ1 in Xenopus oocytes
Type: cell-based
Settings: for G/Gmax Mean: Fig. 3g; for F/Fmax Mean: Fig. 3i
Source text: We employed voltage-clamp fluorometry (VCF) to measure the effects of CP1 on voltage-sensor activation. The emission (F) of Alexa 488 C5 maleimide attached to the S3–S4 linker, at residue C219, of the pseudo wild-type KCNQ1 (with mutations C214A/G219C/C331A) reported VSD movements in response to voltage changes, while the ionic current reported pore opening[45] (Fig. 3f, h). Similar to the WT KCNQ1, the G–V relation of the pseudo WT KCNQ1 shifted to negative voltages by −53.3 ± 3.1 mV in the presence of 10 µM CP1 (Fig. 3g). […] However, the F–V relationship shifted only by −17.3 ± 3.6 mV. […] (Supplementary Fig. 3). […] It is also apparent that at extreme negative voltages ≤ −130 mV, where the voltage sensor seemed not activated (F ~ 0, Fig. 3i), a fraction of the channels was constitutively open (G > 0, Fig. 3b, g).
Oocytes were labeled on ice for 45 min with 10 μM Alexa 488 C5 maleimide (Molecular Probes, Eugene, OR) in high K^+ solution (in mM: 98 KCl, 1.8 CaCl2, and 5 HEPES, pH 7.6). Then the cells were washed with ND96 solution and kept on ice until recording. A CA-1B amplifier was used to record whole-oocyte currents in ND96 solution. Fluorescent signals were recorded simultaneously using a Pin20A photodiode (OSI Optoelectronics, CA), filtered using a FITC filter cube (Leica, Germany, for Alexa 488), and then amplified using a patch-clamp amplifier (EPC10, HEKA, Germany).

O=S(=O)([O-])Oc1c(-c2sc3c(ccc4cccc(Cl)c43)c2OS(=O)(=O)[O-])[nH]c2ccc(Br)cc12.[Na+].[Na+] [CP1, DISODIUM 5-BROMO-2-[9-CHLORO-3-(SULFONATOOXY) NAPHTHO [1,2-B] THIEN-2-YL]-1H-INDOL-3-YL SULFATE]
shift of F–V relationship (VSD activation) (10 µM CP1): −17.3 ± 3.6 mV
shift of G–V relation (10 µM CP1): −53.3 ± 3.1 mV
G/Gmax Mean (10 µM CP1, 0 mV): 0.7707
G/Gmax Mean (10 µM CP1, 10 mV): 0.7200
G/Gmax Mean (10 µM CP1, 20 mV): 0.6664
G/Gmax Mean (10 µM CP1, 40 mV): 0.5879
G/Gmax Mean (10 µM CP1, -10 mV): 0.8231
G/Gmax Mean (10 µM CP1, -20 mV): 0.8668
G/Gmax Mean (10 µM CP1, -30 mV): 0.9194
G/Gmax Mean (10 µM CP1, -40 mV): 0.9570
G/Gmax Mean (10 µM CP1, -50 mV): 0.9837
G/Gmax Mean (10 µM CP1, -60 mV): 1.0000
G/Gmax Mean (10 µM CP1, -70 mV): 0.9888
G/Gmax Mean (10 µM CP1, -80 mV): 0.9295
G/Gmax Mean (10 µM CP1, -90 mV): 0.8170
G/Gmax Mean (10 µM CP1, -100 mV): 0.6596
G/Gmax Mean (10 µM CP1, -110 mV): 0.4846
G/Gmax Mean (10 µM CP1, -120 mV): 0.3240
G/Gmax Mean (10 µM CP1, -130 mV): 0.2412
G/Gmax Mean (10 µM CP1, -140 mV): 0.1631
F/Fmax Mean (10 µM CP1, 0 mV): 0.9059
F/Fmax Mean (10 µM CP1, 10 mV): 0.9298
F/Fmax Mean (10 µM CP1, 20 mV): 0.9639
F/Fmax Mean (10 µM CP1, 30 mV): 0.9526
F/Fmax Mean (10 µM CP1, 40 mV): 1.0000
F/Fmax Mean (10 µM CP1, -10 mV): 0.8465
F/Fmax Mean (10 µM CP1, -20 mV): 0.8444
F/Fmax Mean (10 µM CP1, -30 mV): 0.7943
F/Fmax Mean (10 µM CP1, -40 mV): 0.7337
F/Fmax Mean (10 µM CP1, -50 mV): 0.6357
F/Fmax Mean (10 µM CP1, -60 mV): 0.5712
F/Fmax Mean (10 µM CP1, -70 mV): 0.4588
F/Fmax Mean (10 µM CP1, -80 mV): 0.4066
F/Fmax Mean (10 µM CP1, -90 mV): 0.2751
F/Fmax Mean (10 µM CP1, -100 mV): 0.1745
F/Fmax Mean (10 µM CP1, -110 mV): 0.1186
F/Fmax Mean (10 µM CP1, -120 mV): 0.0457
F/Fmax Mean (10 µM CP1, -130 mV): 0.0520
F/Fmax Mean (10 µM CP1, -140 mV): 0.0265
